One assay deals with maize cultivar DKC2931. Kind of assay: Long term maize pot experiment, Phenovision platform, DKC2931. The assay is classed as in vivo. Conditions: DKC2931, end point after 70 days. On the procedure:
(§1) Regular Arabidopsis, soybean and maize pot experiments used an unfertilized potting soil, which was supplemented at the start of the experiment with 50 ml H2O containing 0.25 g/l NH4NO3 and 0.44 g/l (high phosphate) or no (maize and soybean) or 0.11 g/l KH2PO (Arabidopsis) for low phosphate conditions. For the sand-based maize pot experiment, sand was supplemented with 50 ml H2O containing 0.25 g/l NH4NO3 and 0.38 g/l (high phosphate) or 0.02 g/l (low phosphate) KH2PO4. Potassium was balanced via addition of KCl. Compound concentration was 10 μM, calculated based on the total water content after watering, and was added at the start of the experiment (Arabidopsis) or once a week (maize). Indexed chlorophyll contents were received via a SPAD 502 Plus Chlorophyll Meter. All parameters in the sand experiment, except the rate of leaf 4 (measured the first 4 days after emergence), were measured 19 days after sowing. Measurements in the pot experiments with potting soil were done after 4 weeks of growth, except for leaf 5, which was measured at 26 days. The long term maize pot experiment was performed on the automated Phenovision platform (see Mertens et al, 2021, https://doi.org/10.3389/fpls.2021.640914) with maize cultivars B104 and DKC2931. End point measurements occurred after 90 days (B104) or 70 days (DKC2931). Plants were grown on an unfertilized potting soil, which was fertilized bi-weekly with 50 mL modified Hoagland solution (2.5× concentrated; but with 0.25 mM KH2PO4).

The test system of assay [1] is Arabidopsis thaliana Columbia-0. Kind of assay: Root hair number and length quantification, Arabidopsis vertical plate. The assay is classed as in vivo. To be noted: for activity at 1 µM: 1 μM compound. On the procedure: (§2) All Arabidopsis plant experiments were performed using the Arabidopsis thaliana Columbia-0 background. The Arabidopsis pSPX1::GUS line is described in the […] 2008, 54: 965-975. For rice, the cultivar Nipponbare was used. For maize, the cultivars DKC 2931 and 8104 were used for regular pot experiments and sand-based pot experiments, respectively. For soybean, the cultivar Primus was used. […] The medium was solidified due to the addition of 0.6% Gelrite, unless stated otherwise. In case of vertical plates (root length and root hair measurements), the medium was supplied with 0.5% of sucrose and 1 μM (low phosphate, 1 μM KH2PO4, 9.9 mM KCl), 10 μM (low phosphate 10 μM KH2PO4, 9.9 mM KCl) or 1.25 mM KH2PO4 (high phosphate). Arabidopsis seeds were stratified for 2 days at 4° C. before germination. Seedlings were germinated in climate-controlled growth chambers at 22° C. under continuous light ([…] m^−2 s^−1). Husked rice seeds were germinated on wetted Whatman paper for 2 days at 37° C. and then transferred to Sterivent boxes or square Petri dishes with solid medium. Maize and soybean seeds were wetted 24 hours at room temperature prior to sowing in pots.
Roots were imaged using a stereomicroscope or a VHX-6000. Number and length of the root hairs parallel to the medium surface was determined at 4 to 6 mm above the root meristem. Root hair length was measured using the ImageJ software.

Assay [2] deals with SPX1 phosphate starvation biomarker (pSPX1::GUS). Kind of assay: Chemical activity assessment: SPX1 suppression in Arabidopsis pSPX1::GUS reporter line (GUS stained area). The assay is classed as in vivo, Arabidopsis thaliana. Conditions: 50 μM compound, low phosphate modMS liquid medium, 96-well, 7 days after germination; low phosphate control of same plate. On the procedure:
as §2
For the chemical activity assessment 3 to 8 seeds per well of Arabidopsis pSPX1::GUS line were sown in 96-well plates containing 150 μl of low phosphate modMS liquid medium containing 1% of sucrose. Compounds were added in 50 μM concentration, starting from a 5 mM stock of compounds solved in DMSO. Different chemical substances were separately added to different wells. Per plate, 16 control wells were used, 8 containing only the low phosphate medium and 1% DMSO, and 8 containing high phosphate medium and 1% DMSO. 7 days after germination, plates were scanned using a flatbed scanner (EPSON Expression 11000XL) and analyzed for leaf size. After scanning, the growth medium was replaced by GUS staining solution (see Plant Mol. Biol. Rep. 1994, 12: 37-42 for details) and incubated for 1.5 hours at 37° C. The plates were scanned a second time and analyzed for GUS signal area. Measurements of both leaf area and GUS signal area were conducted by filtering out and measure the green and blue signal, respectively using ImageJ software. If the green leaf area was 50% or less than the control, samples were omitted. Additionally, all results were visually screened for leaf size and GUS signal.
To identify new substances that suppress the expression of the SPX1 phosphate starvation biomarker, we used an Arabidopsis SPX1 reporter line pSPX1::GUS. […] This observation was confirmed in two experimental repeats.

For the next assay, the system named is maize cultivar B104. Kind of assay: Long term maize pot experiment, Phenovision platform, B104. It counts as in vivo. Conditions: B104, end point after 90 days. As to the method: as §1
The next assay has as its system maize cultivar DKC 2931. Kind of assay: Regular maize pot experiment (potting soil). It counts as in vivo. Conditions: low phosphate, 10 μM compound. As to the method: as §2, §1
Assay [3] relates to Arabidopsis thaliana Columbia-0. Kind of assay: Arabidopsis horizontal plate leaf area assay. It counts as in vivo. Conditions: Arabidopsis horizontal plates (Table 4); control without compound 63. On the procedure:
as §2
Arabidopsis primary root growth experiments were done on MS1/2 on vertical standing plates and roots were measured 11 days after germination. Roots were imaged using a flatbed scanner (EPSON Expression 11000XL) and root length was measured using ImageJ software. Arabidopsis shoot biomass was determined in 11 days after germination and growth on vertical standing plates with modMS. Arabidopsis leaf area was measured 21 days after germination on horizontal plates with modMS medium. Plates were scanned from the top using a flatbed scanner (EPSON Expression 11000XL) and the visible leaf area was measured using ImageJ software. Rice plate experiments used vertically standing Petri dishes containing MS1/2 medium (low phosphate—0.001 mM) solidified with 0.8% washed agar. Plant height was measured 11 days after germination. Rice box experiments used modMS medium and a low phosphate condition of 0.025 mM phosphate. Plant height was measured 13 days after germination. All growth experiments occurred with 10 μM of compound and in low phosphate conditions, unless stated otherwise. Controls always received the same DMSO concentration.

Where [4] appears, read: Arabidopsis thaliana, read-out: Total root hair length per root (in % compared to the control).
The mark [5] stands for this setting: Arabidopsis vertical plate, high phosphate.

Each structure is given as a SMILES string.

With `CCN(CCCN)c1ccccc1` [Example 2], in the assay on maize cultivar DKC2931, the Biomass was 31 g, the Plant height came out at 1010 mm, the “Plants with developed ears” value is recorded as 100% and the Sum of leaf length amounted to 3950 mm. In addition, the activity at 1 µM in assay [1] (setting [4]) came to 886%. In assay [1] (setting [5]), the “Average root hair length per root in high phosphate conditions” value is on record as 0.28 mm, the “Root hair number in high phosphate conditions (one plane in 2 mm region)” value amounted to 8 and the “Total root hair length per root in high phosphate conditions” value is given as 0.27 cm. The “GUS (SPX1) stained area normalized to the number of seeds” value (“GUS (SPX1) stained area normalized” below) in assay [2] turned out to be 21 pixels. Also, in the assay with maize cultivar B104, the Biomass was found to be 37 g, the Plant height is 719 mm, the “Plants with developed ears” value is 62% and the Sum of leaf length stood at 6050 mm. In the assay on maize cultivar DKC 2931 (4 weeks), this molecule displayed a Plant height of 62 cm and a Shoot weight of 4.5 g. The “Leaf 5” value with maize cultivar DKC 2931 (26 days) was determined as 46 cm.

In turn, `NCCCNc1ccccc1` [Example 3] gave an Average leaf area in assay [3] of 69 mm^2.

With `CN(CCCN)c1ccccc1` [Example 4], in assay [3], the Average leaf area is recorded as 72 mm^2.

Molecule `CCN(CCCNC)c1ccccc1` [Example 5] showed an Average leaf area in assay [3] of 65 mm^2.

As for `CCN(CCCNC(=O)CNC(=O)c1cc(C)cc(C)c1)c1ccccc1` [Example 6], in assay [2], the “GUS (SPX1) stained area normalized” value was found to be 8 pixels.

With `CCN(C)c1ccccc1` [Example 9], the activity at 1 µM in assay [1] (setting [4]) was determined as 390%. In addition, the activity at 3 µM in assay [1] (Arabidopsis thaliana, 3 μM compound, read-out: Total root hair length per root (in % compared to the control)) amounted to 313%. Further, the activity at 10 µM in assay [1] (Arabidopsis thaliana, 10 μM compound, read-out: Total root hair length per root (in % compared to the control)) was determined as 758%.

As for `CN(CCCNC(=O)CSc1nnnn1-c1ccccc1)c1ccccc1` [Example 10], the “GUS (SPX1) stained area normalized” value in assay [2] was determined as 298 pixels.

Regarding `Cc1ccccc1-c1nnc(SCC(=O)NCCCN(C)c2ccccc2)n1C` [Example 11], the “GUS (SPX1) stained area normalized” value in assay [2] is on record as 800 pixels.

The values are drawn from US20240306641A1, “P-BOOSTER” (EUROCHEM ANTWERPEN, priority 2021, published 2024).
